Source: US8030444B2, “Microbicidal compositions comprising human CD38 polypeptides derived from the extracellular membrane-proximal region” (priority 2002, dated 2011)
Where two headings read alike, the source gives them in different places. Ends that are not written are not given here.

Experiments:
[1] = Water solubility of peptides
[2] = system: primary HIV-1 isolates (R5); assay: Infection of PBMC by primary HIV-1 isolates, p24 ELISA; type: cell-based
MT-4 cells = assay: Toxicity assays (trypan blue, MTT, propidium iodide/annexin V) on MT-4 cells; type: cell-based
Experimental: (§1) Cell proliferation was assessed by sequential counts of the number of live cells per ml of cell cultures by the trypan-blue exclusion method. Cell viability and apoptosis were analyzed by the methyl tetrazolium (MTT) method (Sigma-Aldrich) according to a procedure previously described in Savarino, A., Calosso, L., Piragino, A., Martini, C., Gennero, L., Pescarmona, G. P., and Pugliese, A. (1999). Modulation of surface transferrin receptors in lymphoid cells de novo infected with human immunodeficiency virus type-1. Cell. Biochem. Funct 17, 47-55, the contents of which are hereby incorporated in their entirety, and by propidium iodide/annexin V FITC staining (MedSystems Diagnostics GmbH, Vienna, Austria) following the manufacturer's instructions.
(§2) Cells (from established cell lines or primary cultures) were resuspended at 2.5×10^5/ml in the presence of 0, 0.1, 1, 10 and 100 nM CD3851-74 MBP. Then, 200 μL portions were transferred to microtiter trays and maintained at 37° C. […] Cell viability was monitored daily by trypan blue-dye exclusion. Cell proliferation was assessed by sequential counts of the number of live cells per ml of cell cultures by the trypan-blue exclusion method. Cell viability and apoptosis were analyzed by the methyl tetrazolium (MTT) method, and by propidium iodide/annexin V fluorescein isothiocyanate (FITC) staining following the manufacturer's instructions. […]

HIV-1IIIB [3] = system: HIV-1IIIB
[4] = molecular target: FITC-conjugated HIV-1IIIB gp120; assay: gp120 attachment assay, FITC-gp120 staining of cells by flow cytometry; type: binding; settings: MT-2 cells, 50 nM peptide, 5 μg/ml gp120
Experimental: In gp120 attachment assays, cells were incubated for 30 min. at 4° C. with 2 μg/ml of FlTC-conjugated HIV-1IIIB gp120 (gp120IIIB, Intracell Corp, London, UK) in PBS plus 2% albumin plus 0.01% NaN3 (PBS A/A) in the presence or absence of CD38 or CD38-derived molecules. Cells were then washed three times in PBS A/A, and fluorescence was acquired by flow cytometry. Fluorescence data were expressed as MeFI and normalized for CD4 expression where necessary.
In gp120 attachment assays, cells were incubated with saturating concentrations of FITC-conjugated gp120 from the HIV-1IIIB strain (gp120IIIB) (Intracell Corp, London, UK) in the presence or absence of CD3851-74, (SEQ ID NO:15, 21), and acquired fluorescence flow-cytometrically. The MeFI was used as an estimate of gp120 binding to cells.
HIV-1 gp120 binding experiments confirmed that CD3851-74 MBP inhibits at the level of gp120 attachment to target cells. In these experiments, MT-2 cells were incubated for 30 min. at 4° C. with saturating concentrations (5 μg/ml) of fluorescein isothiocyanate-labeled (FITC) HIV-1IIIB gp 120 (gp 120IIIB) in PBS plus 2% albumin plus 0.01% NaN3 (PBS A/A) in the presence or absence of 50 nM CD3851-74 MBP. Cells were then washed three times in PBS A/A, and fluorescence was acquired by flow cytometry.

[5] = system: primary peripheral blood mononuclear cells (PBMC); assay: Toxicity assays (trypan blue, MTT, propidium iodide/annexin V) on PBMC; type: cell-based
Experimental: as §1, §2

PHA-stimulated PBMC = assay: Cytokine production by PBMC in response to PHA; type: cell-based
Experimental: To evaluate whether CD3851-74 MBP might costimulate activation of PBMC, tests were conducted to evaluate cytokine production in response to PHA. For this purpose, PBMC were ficoll-separated and incubated with 0, 0.1, 1, 10 nM CD3851-74 MBP, in the presence of 0.1 or 1 μg/ml PHA. Then, supernatants were collected at 4, 12, 24, and 36 h of incubation, and the levels of TNF-alpha, IFN-gamma, IL-02, IL-4, IL-5, IL-6 and IL-10 were tested by ELISA (R and D Systems, Minneapolis, Minn.) or by cytofluorimetric multi-cytokine bead arrays (Becton-Dickinson). […] Some of these effects are depicted in the FIGS. 14, 15, 16 and 17. […] However, if significant, it would not be of safety concern. By contrast, it would support the anti-HIV effect of CD3851-74 MBP, since both TNF-alpha and IL-6 promote HIV-1 replication. […] De S K, Devadas K, Notkins A L. Elevated levels of tumor necrosis factor alpha (TNF-alpha) in human immunodeficiency virus type 1-transgenic mice: prevention of death by antibody to TNF-alpha. J Virol 2002; 76: 11710-4.

HeLa cells = assay: Toxicity assays (trypan blue, MTT, propidium iodide/annexin V) on HeLa cells; type: cell-based; settings: 0.1-100 nM
Experimental: as §1, §2

[6] = system: HIV-1IIIB-infected MT-4 cells; assay: HIV-1 cytopathogenicity in MT-4 cells, re-clustering after cluster disruption; type: cell-based; settings: five days post-infection with HIV-1IIIB, 100 μM (FIG. 6)
Experimental: MT-4 cells display a typical clustered pattern. When infected with HIV-1IIIB, MT-4 cells lose the capacity of forming clusters. At five days post-infection, clusters were dissociated by pipetting, and reclustering was examined microscopically after a 3-h incubation at 37° C., as described by Pauwels et al. Pauwels, R., et al., “Sensitive and rapid assay on MT-4 cells for detection of antiviral compounds against the AIDS virus,” J Virol Methods, 16: 171-185 (1987). In MT-4 cells, in fact, HIV-1IIIB acts as a slow/low syncytium-inducing strain whose cytopathic effect consists in loss of cell ability to cluster and is strictly correlated to the level of viral replication.

[7] = molecular target: T1, recombinant soluble human (rsh) CD4 (Homo sapiens, UniProt P01730); assay: Binding of biotin-conjugated peptide to plate-adsorbed rshCD4 (ELISA); settings: 0.1-10 μM peptide
T1 construct: recombinant soluble human (rsh) CD4 (2 μg/ml) (R&D Systems); purchased R&D Systems
Experimental: Synthetic peptides from CD38 (SEQ ID NO:23) were conjugated with biotin (Pierce) as described in Wilchek, M., and Bayer, E. A., “Avidin-biotin technology,” Methods Enzymol., 184:1-746 (1990). Briefly, recombinant soluble human (rsh) CD4 (2 μg/ml) (R&D Systems) was adsorbed onto wells of 96-well-ELISA plates. Wells were then saturated with phosphate buffer saline (PBS)+2% bovine serum albumin (BSA), washed with PBS+1% BSA+0.05% Triton X-100, and the plates were incubated for 2 h at 37° C. with 100 μL of different concentrations (0.1-10 μM) of biotin-conjugated peptide. After six washes, 100 microl of streptavidin-conjugated horseradish peroxidase (HRP) from a commercially available HIV-1 p24 ELISA kit (NEN) diluted 1:100 in PBS+1% BSA was added to the wells for 30 min. at room temperature. After six more washes, the wells were incubated in the dark for 30 min. at room temperature with 100 μL of o-phenylenediamine (OPD tablets-Sigma), a chromogenic substrate for HRP diluted in phosphate-citrate buffer pH 5.0 as indicated in the Manufacturer's instructions. Then, the reaction was stopped by adding to each well 100 μL of 4 N sulfuric acid. Plates were read at 450 nm using an automated ELISA reader. […] Negative controls were run by incubating the wells with each of the titrated peptide in the absence of rshCD4 and performing the same steps described above. […]

HIV-1IIIB [8] = assay: HIV-1IIIB infection of wild-type MT-2 cells in presence of soluble CD38; type: cell-based
Experimental: In acute infection assays, the appropriate cell types were incubated at 37° C. for 2 h with the viral stock suspensions at a multiplicity of infection (MOI) of approximately 0.1, unless otherwise specified. After three washes, cells were incubated in fresh culture medium for 7 days at 37° C., and cell-free supernatants at different intervals post-infection were harvested for ELISA measurement of HIV-1 p24 (NEN Life Science Prod., Boston Mass.) or HIV-2 p27 (Coulter, Hialeah, Fla.). Where necessary, soluble CD38-derived molecules were added during the step of virus adsorption onto cells.
First, attention was focused on the intracellular (IC) domain of CD38. HIV-1IIIB was used to infect both a MT-2 cell line transfected with a truncated form of CD38 lacking the IC domain (CD3824-300) and wild-type MT-2 cells in the presence of a recombinant soluble form of CD38 consisting solely of the extracellular (EC) domain (sCD3845-300).

In the case of “RQQWSGPGTTKRFPETVLARCVKYTEIH [SEQ ID NO: 17]”, the water solubility [1] is reported as “water-insolubility”.

In the case of RWRQTWSGPGTTK [SEQ ID NO: 14], the water solubility [1] is reported as “water-insolubility”.

For “RWRQQWSGPGTTKRFPETVLARCVKYTEIH [SEQ ID NO: 16]”, the water solubility [1] was “water-insolubility”.

In the case of “(SGPGTTKRFPETVLACVKYTEIH)8 polylysin [CD3851-74 MBP]”, the “growth kinetics of primary R5 isolates subtype C (VI 829) and subtype A (UG3)” value ([2]; PBMC, 1 nM) is reported as “delayed the growth kinetics”, the estimated selectivity index ([2]; antiviral effects at 0.1 nM, no toxicity up to 100 nM) is reported as 1000 and the “concentration range inhibiting infection of PBMC by primary HIV-1 isolates” value ([2]; pilot experiments, PBMC, isolate VI 829) is reported as 0.1 to 10 nM. For the same substance, the “concentration at which antiviral effects were detected” value ([2]; see Example IV) was 0.1 nM, the “cell proliferation, viability and death” value (MT-4 cells; MT-4 cells, 0.1-100 nM) was “does not alter cell proliferation and viability nor does it induce death” and the “range of inhibitory concentrations lower than that of CD3851-74” value (HIV-1IIIB [3]; HIV-1 replication, compared with Example I) was “approximately 1000 fold”. The “concentration range of dose-dependent inhibition of HIV-1IIIB infection” value (HIV-1IIIB [3]; MT-4 cells, p24 ELISA Day 3) was 1 to 10 nM, the EC50 (HIV-1IIIB [3]; read-out: EC50, inhibition of HIV-1IIIB infection, MT-4 cells, p24 ELISA Day 3, peptide added only during virus adsorption) was 12 nM and the EC90 (HIV-1IIIB [3]; read-out: EC90, inhibition of HIV-1IIIB infection, MT-4 cells, p24 ELISA Day 3, peptide added only during virus adsorption) was 0.075 µM. The “gp120-FITC binding to cells” value [4] was “down-modulated”, the “toxicity in uninfected PBMC cultures” value ([5]; 0.1 nM-100 nM, growth kinetics, trypan blue, MTT, annexin V/propidium iodide) was “did not display any significant toxicity” and the “cell proliferation, viability and death” value ([5]; PBMC, PHA-stimulated or unstimulated, three donors, 0.1-100 nM) was “does not alter cell proliferation and viability nor does it induce death”. For the same substance, the “IL-2, IL-4, IL-5 and IL-10 levels versus untreated cells” value (PHA-stimulated PBMC; PBMC, 0.1 or 1 μg/ml PHA, 0.1, 1, 10 nM peptide) was “essentially identical”, the “TNF-alpha and IL-6 levels” value (PHA-stimulated PBMC; PHA-stimulated PBMC, decrease did not reach statistical significance) was “transient and donor-dependent inhibition” and the “cell proliferation, viability and death” value (HeLa cells) was “does not alter cell proliferation and viability nor does it induce death”.

With “RWRQTWSGPGTTKRFPETVLARCVKYTEIH [SEQ ID NO: 12]” the water solubility [1] was “water-insolubility”.

For “(GPGTTK)8 polylysin (also: eight copies on polylysine core (MBP); listed as Homo sapiens) [GPGTTK MBP]”, the “anti-HIV activity against higher viral challenge” value ([2]; HIV-1UG3, PBMC, MOI 0.5, 1 nM) was “maintains the anti-HIV activity”, the “ability of infected MT-4 cultures to form clusters” value [6] was “maintained a partial ability to form clusters” and the “toxic effects on MT-4 cells” value (MT-4 cells; concentrations showing anti-HIV effects) was “no toxic effects”. For the same substance, the “inhibition of HIV-1IIIB replication (in words)” value (HIV-1IIIB [3]; MT-4 cells, p24 ELISA) was “dose-dependently inhibited infection” and the “association of biotin-conjugated peptide to rshCD4 (O.D.)” value [7] was “associated to rshCD4 in a manner dependent on the concentration”.

With SGPGTTKRFPETVLARCVKYTEIH [CD3851-74] the “toxic effects at the concentrations used” value (cell cultures) was “did not carry out toxic effects”, the EC50 (HIV-1IIIB [3]; 1IIIB, 2 h) was 2200 nM and the EC90 (HIV-1IIIB [3]; 1IIIB, 2 h) was 182 µM.

In the case of “sCD3845-300: recombinant soluble form of CD38 consisting solely of the extracellular (EC) domain”, the “HIV infection of MT-2 cells” value (HIV-1IIIB [8]) is reported as “inhibited HIV infection”.

In the case of “RQTWSGPGTTKRFPETVLARCVKYTEIH [SEQ ID NO: 13]”, the water solubility [1] is reported as “water-insolubility”.
